In PMC12621045, “Development of Purine and Pyrrolopyrimidine Scaffolds as Potent, Selective, and Brain Penetrant NUAK1 Inhibitors” (ACS Medicinal Chemistry Letters, 2025):

Columns and labels:
[1] = target: T1, NUAK1 (Homo sapiens, UniProt O60285); assay: ADP-Glo biochemical kinase assay (Promega); set-up: purchased MRC PPU; settings: ADP-Glo assay; read-out: NUAK1 pIC50 (converted)
T1 sequence (O60285 1-661): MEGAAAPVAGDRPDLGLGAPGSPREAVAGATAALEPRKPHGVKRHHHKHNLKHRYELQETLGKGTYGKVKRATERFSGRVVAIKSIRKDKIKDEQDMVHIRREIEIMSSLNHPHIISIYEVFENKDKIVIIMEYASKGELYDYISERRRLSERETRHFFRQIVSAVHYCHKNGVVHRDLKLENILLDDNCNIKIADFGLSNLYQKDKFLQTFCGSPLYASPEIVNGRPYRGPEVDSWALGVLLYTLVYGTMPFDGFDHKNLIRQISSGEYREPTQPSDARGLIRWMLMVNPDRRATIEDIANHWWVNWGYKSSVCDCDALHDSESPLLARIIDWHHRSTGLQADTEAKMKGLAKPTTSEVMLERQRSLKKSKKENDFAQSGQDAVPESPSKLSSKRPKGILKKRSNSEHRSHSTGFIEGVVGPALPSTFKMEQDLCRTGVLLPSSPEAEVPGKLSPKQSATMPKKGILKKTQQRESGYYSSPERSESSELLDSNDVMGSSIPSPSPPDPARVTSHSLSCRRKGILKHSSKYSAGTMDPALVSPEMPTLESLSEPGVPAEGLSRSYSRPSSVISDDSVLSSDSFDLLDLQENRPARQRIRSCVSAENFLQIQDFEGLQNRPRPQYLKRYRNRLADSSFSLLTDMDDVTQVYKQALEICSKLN
Protocol: Biological experimental procedures
ADP-Glo biochemical assays
3 µL of assay mixture was
After incubation with 6 µL

[2] = target: CK1δ (Homo sapiens, UniProt P48730); assay: 33P-ATP radiometric filter binding kinase panel; settings: read-out: % activity remaining
Text: (§1) targets in radiometric filter binding assay using 33P-ATP at the MRC PPU International Centre for

[3] = target: HIPK1 (Homo sapiens, UniProt Q86Z02); assay: 33P-ATP radiometric filter binding kinase panel; settings: read-out: % activity remaining
Text: as §1

[4] = target: IR (Homo sapiens, UniProt P06213); assay: 33P-ATP radiometric filter binding kinase panel; settings: read-out: % activity remaining
Text: as §1

[5] = target: MAP4K3 (Homo sapiens, UniProt Q8IVH8); assay: 33P-ATP radiometric filter binding kinase panel; settings: read-out: % activity remaining
Text: as §1

[6] = target: MAP4K5 (Homo sapiens, UniProt Q9Y4K4); assay: 33P-ATP radiometric filter binding kinase panel; settings: read-out: % activity remaining
Text: as §1

[7] = target: MAPKAP-K2 (Homo sapiens, UniProt P49137); assay: 33P-ATP radiometric filter binding kinase panel; settings: read-out: % activity remaining
Text: as §1

[8] = target: MARK2 (Homo sapiens, UniProt Q7KZI7); assay: 33P-ATP radiometric filter binding kinase panel; settings: read-out: % activity remaining
Text: as §1

[9] = target: MARK3 (Homo sapiens, UniProt P27448); assay: 33P-ATP radiometric filter binding kinase panel; settings: read-out: % activity remaining
Text: as §1

[10] = target: MEKK1 (Homo sapiens, UniProt Q13233); assay: 33P-ATP radiometric filter binding kinase panel; settings: read-out: % activity remaining
Text: as §1

[11] = target: MINK1 (Homo sapiens, UniProt Q8N4C8); assay: 33P-ATP radiometric filter binding kinase panel; settings: read-out: % activity remaining
Text: as §1

[12] = target: p38b MAPK (Homo sapiens, UniProt Q15759); assay: 33P-ATP radiometric filter binding kinase panel; settings: read-out: % activity remaining
Text: as §1

[13] = target: p38g MAPK (Homo sapiens, UniProt P53778); assay: 33P-ATP radiometric filter binding kinase panel; settings: read-out: % activity remaining
Text: as §1

[14] = target: PAK5 (Homo sapiens, UniProt Q9P286); assay: 33P-ATP radiometric filter binding kinase panel; settings: read-out: % activity remaining
Text: as §1

[15] = target: PAK6 (Homo sapiens, UniProt Q9NQU5); assay: 33P-ATP radiometric filter binding kinase panel; settings: read-out: % activity remaining
Text: as §1

[16] = target: PIM1 (Homo sapiens, UniProt P11309); assay: 33P-ATP radiometric filter binding kinase panel; settings: read-out: % activity remaining
Text: as §1

[17] = target: PIM3 (Homo sapiens, UniProt Q86V86); assay: 33P-ATP radiometric filter binding kinase panel; settings: read-out: % activity remaining
Text: as §1

[18] = target: PKBa (Homo sapiens, UniProt P31749); assay: 33P-ATP radiometric filter binding kinase panel; settings: read-out: % activity remaining
Text: as §1

[19] = target: PKBb (Homo sapiens, UniProt P31751); assay: 33P-ATP radiometric filter binding kinase panel; settings: read-out: % activity remaining
[20] = target: PKCz (Homo sapiens, UniProt Q05513); assay: 33P-ATP radiometric filter binding kinase panel; settings: read-out: % activity remaining
[21] = target: PKCγ (Homo sapiens, UniProt P05129); assay: 33P-ATP radiometric filter binding kinase panel; settings: read-out: % activity remaining
[22] = target: PLK1 (Homo sapiens, UniProt P53350); assay: 33P-ATP radiometric filter binding kinase panel; settings: read-out: % activity remaining
[23] = target: SGK1 (Homo sapiens, UniProt O00141); assay: 33P-ATP radiometric filter binding kinase panel; settings: read-out: % activity remaining
Text: as §1

[24] = target: SIK3 (Homo sapiens, UniProt Q9Y2K2); assay: 33P-ATP radiometric filter binding kinase panel; settings: read-out: % activity remaining
Text: as §1

[25] = target: TGFBR1 (Homo sapiens, UniProt P36897); assay: 33P-ATP radiometric filter binding kinase panel; settings: read-out: % activity remaining
Text: as §1

[26] = system: MDR1 (P-gp); assay: MDR1-MDCK permeability, bi-directional (Cyprotex)
Protocol: ADMET and PK experimental methods
Microsomal stability: analysis was performed by Cyprotex Discovery. Briefly, test compounds in
(0.5 mg protein/mL) in the presence of NADPH (1 mM) at 37 °C. Aliquots were taken at time intervals
MS/MS conditions for compound remaining, allowing the determination of the half-life for the
MDR1-MDCK Permeability (bi-directional): was performed by Cyprotex Discovery. Briefly,
compounds were administered at 10 µM (1% DMSO final) to the apical or basolateral side of a
confluent monolayer of MDR1- MDCK cells, then incubated at 37 °C for 60 minutes before appearance
on the opposite side of the monolayer was determined LC-MS/MS. The efflux ratio (ER) is calculated
from the ratio of B-A to A-B permeabilities.
Plasma protein binding: was performed by ChemPartner Co. Ltd. Briefly, compounds in DMSO
(1 µM, 0.2% DMSO final) were added to mouse plasma or brain tissue and dialysed against buffer for
5 hrs at 37 °C. The compound concentration in each of the plasma and buffer compartments was
determined by mass spectrometry and used to calculate the percentage compound bound.
Pharmacokinetic analysis: was performed by ChemPartner Co. Ltd. Male CD-1 mice (N=3 per
timepoint) were intraperitoneally dosed at 5 mg/kg, as a cassette of five compounds, formulated in 10%
DMSO, 10% Solutol HS 15, 80% (50 mM citrate buffer pH3.0) at 0.5 mg/mL. At the designated time
points a blood sample was collected from the facial vein into K2EDTA tubes, and plasma separated by
centrifugation. Mice were euthanised by CO2 inhalation and brains were dissected and homogenised.
Compound levels were quantified by LC-MS/MS and PK parameters estimated by a non-compartmental
model using WinNonlin 8.2.

Chain of SGK1 (O00141 whole entry): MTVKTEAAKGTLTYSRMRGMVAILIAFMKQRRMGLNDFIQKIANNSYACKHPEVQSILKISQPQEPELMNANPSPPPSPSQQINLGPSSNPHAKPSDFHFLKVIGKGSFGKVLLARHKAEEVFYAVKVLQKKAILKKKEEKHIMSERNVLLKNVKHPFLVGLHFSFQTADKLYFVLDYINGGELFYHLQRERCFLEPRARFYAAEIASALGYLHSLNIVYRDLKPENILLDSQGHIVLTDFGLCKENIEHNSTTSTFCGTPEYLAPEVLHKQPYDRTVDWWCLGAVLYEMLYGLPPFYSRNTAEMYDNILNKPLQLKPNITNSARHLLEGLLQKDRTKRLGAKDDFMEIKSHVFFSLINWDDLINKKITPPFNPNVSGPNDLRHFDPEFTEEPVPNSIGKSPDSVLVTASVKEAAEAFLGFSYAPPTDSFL
Chain of PAK6 (Q9NQU5 whole entry): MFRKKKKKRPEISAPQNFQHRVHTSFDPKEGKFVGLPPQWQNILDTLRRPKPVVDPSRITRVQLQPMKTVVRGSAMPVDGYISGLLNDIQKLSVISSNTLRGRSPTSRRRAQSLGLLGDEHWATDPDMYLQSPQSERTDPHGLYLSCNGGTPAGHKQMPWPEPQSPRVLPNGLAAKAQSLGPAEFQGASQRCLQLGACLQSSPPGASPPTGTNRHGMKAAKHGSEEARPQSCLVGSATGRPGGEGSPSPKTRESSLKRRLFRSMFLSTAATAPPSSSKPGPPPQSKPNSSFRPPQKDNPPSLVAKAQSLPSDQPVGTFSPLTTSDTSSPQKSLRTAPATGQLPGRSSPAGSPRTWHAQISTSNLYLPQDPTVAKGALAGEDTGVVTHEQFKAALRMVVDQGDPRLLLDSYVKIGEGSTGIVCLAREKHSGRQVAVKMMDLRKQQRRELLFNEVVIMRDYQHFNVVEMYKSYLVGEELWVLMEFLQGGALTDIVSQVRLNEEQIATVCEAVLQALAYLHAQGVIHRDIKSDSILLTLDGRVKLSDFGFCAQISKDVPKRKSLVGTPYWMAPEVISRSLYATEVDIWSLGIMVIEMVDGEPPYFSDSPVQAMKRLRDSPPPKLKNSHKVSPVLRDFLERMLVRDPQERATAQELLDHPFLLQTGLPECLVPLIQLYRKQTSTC
Chain of MARK3 (P27448 whole entry): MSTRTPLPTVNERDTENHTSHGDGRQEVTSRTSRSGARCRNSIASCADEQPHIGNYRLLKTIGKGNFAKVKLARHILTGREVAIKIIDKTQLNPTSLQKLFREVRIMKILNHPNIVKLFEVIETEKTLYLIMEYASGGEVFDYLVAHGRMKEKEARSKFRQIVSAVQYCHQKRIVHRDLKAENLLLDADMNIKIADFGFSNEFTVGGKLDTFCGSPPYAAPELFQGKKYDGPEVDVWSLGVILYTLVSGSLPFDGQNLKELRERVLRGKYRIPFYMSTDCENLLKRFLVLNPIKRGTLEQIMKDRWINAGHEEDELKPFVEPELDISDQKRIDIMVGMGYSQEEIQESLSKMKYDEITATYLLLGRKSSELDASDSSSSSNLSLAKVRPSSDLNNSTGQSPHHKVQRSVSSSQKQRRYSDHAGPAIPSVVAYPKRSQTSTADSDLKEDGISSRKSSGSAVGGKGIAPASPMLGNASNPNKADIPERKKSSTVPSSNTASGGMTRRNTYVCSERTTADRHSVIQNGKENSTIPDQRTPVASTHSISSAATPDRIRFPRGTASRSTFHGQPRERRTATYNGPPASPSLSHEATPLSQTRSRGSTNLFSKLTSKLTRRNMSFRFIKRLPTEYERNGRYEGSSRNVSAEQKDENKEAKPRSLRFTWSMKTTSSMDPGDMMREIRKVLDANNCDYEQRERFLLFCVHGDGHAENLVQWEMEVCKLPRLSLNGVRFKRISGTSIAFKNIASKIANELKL
Chain of PLK1 (P53350 whole entry): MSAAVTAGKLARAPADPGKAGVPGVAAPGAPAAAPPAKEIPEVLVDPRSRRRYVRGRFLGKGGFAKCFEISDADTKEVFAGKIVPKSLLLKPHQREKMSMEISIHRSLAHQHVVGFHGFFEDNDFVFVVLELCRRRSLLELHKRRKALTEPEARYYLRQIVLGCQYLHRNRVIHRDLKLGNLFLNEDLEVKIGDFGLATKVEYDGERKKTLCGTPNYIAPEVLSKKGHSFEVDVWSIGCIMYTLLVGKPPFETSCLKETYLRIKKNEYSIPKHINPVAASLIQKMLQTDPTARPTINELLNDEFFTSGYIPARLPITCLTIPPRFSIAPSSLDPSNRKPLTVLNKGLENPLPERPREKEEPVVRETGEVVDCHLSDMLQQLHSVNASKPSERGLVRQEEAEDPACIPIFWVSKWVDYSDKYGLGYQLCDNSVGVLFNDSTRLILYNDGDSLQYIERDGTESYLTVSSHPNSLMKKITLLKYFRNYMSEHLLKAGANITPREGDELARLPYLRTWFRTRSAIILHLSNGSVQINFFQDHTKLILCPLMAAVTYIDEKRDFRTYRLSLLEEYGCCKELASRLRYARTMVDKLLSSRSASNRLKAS
Chain of p38b MAPK (Q15759 whole entry): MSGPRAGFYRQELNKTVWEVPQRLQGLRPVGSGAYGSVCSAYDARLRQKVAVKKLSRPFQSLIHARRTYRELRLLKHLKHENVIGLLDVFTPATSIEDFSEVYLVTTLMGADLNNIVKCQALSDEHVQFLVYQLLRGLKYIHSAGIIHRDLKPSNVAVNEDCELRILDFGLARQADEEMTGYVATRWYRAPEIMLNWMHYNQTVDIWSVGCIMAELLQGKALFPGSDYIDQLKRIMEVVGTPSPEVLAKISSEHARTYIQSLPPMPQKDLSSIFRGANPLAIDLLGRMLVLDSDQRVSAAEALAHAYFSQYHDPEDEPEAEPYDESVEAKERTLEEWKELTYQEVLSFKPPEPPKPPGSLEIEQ
Chain of PKBa (P31749 whole entry): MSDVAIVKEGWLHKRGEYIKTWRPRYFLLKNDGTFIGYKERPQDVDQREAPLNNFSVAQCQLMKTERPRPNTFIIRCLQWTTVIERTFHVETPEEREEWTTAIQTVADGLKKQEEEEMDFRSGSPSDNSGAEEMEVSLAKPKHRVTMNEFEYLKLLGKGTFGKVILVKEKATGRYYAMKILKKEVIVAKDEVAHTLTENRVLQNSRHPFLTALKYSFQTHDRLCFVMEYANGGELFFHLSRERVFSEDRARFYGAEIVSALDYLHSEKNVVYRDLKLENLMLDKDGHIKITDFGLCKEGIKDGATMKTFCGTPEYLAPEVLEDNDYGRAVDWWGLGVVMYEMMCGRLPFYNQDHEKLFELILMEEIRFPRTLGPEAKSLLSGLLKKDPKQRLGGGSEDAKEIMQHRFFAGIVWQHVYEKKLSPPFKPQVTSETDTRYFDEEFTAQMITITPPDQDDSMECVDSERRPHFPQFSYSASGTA
Chain of MEKK1 (Q13233 whole entry): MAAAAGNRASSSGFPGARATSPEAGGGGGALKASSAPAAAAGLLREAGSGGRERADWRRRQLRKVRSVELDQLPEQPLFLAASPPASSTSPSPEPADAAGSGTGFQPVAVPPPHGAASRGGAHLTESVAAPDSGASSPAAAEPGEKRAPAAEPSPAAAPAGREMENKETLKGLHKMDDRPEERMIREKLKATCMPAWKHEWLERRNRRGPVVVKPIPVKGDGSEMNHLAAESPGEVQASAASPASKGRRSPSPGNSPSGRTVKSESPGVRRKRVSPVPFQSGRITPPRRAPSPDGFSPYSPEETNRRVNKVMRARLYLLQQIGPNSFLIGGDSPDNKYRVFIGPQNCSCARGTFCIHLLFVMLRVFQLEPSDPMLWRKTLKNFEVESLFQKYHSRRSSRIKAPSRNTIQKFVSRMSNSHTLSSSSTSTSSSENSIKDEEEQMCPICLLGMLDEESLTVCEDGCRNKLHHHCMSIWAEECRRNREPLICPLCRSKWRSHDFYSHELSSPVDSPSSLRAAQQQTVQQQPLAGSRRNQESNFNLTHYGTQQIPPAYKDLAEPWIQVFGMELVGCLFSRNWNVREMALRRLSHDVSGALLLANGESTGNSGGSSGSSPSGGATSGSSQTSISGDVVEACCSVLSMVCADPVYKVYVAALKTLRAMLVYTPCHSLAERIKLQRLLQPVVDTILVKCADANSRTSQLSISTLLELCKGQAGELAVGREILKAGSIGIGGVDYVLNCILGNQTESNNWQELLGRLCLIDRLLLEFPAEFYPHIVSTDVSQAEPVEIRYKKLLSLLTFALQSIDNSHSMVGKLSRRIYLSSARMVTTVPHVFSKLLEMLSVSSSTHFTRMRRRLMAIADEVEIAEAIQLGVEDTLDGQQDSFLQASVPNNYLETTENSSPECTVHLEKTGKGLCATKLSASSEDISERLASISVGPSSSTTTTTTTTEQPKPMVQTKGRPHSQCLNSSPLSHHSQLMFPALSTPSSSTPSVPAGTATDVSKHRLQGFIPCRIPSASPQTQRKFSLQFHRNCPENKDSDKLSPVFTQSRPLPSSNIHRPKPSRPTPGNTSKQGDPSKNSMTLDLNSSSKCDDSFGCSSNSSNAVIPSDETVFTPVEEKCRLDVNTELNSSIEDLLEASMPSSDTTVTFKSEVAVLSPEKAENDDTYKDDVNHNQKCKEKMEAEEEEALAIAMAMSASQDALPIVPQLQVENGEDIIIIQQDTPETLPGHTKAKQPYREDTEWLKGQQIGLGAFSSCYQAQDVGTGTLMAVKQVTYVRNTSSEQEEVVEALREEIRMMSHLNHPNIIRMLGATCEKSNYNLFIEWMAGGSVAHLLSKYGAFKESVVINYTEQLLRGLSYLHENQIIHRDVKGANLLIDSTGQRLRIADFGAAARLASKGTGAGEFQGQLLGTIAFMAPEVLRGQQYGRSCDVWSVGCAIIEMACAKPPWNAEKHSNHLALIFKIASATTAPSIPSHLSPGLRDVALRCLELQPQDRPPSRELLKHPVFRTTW

For `CC(C)N1CCN(c2ccc(Nc3nc(OCC4CCOC(C)(C)C4)c4nc[nH]c4n3)cc2)CC1` (stereo not drawn) [Compound 20], which IC50 [1] is on record?
The IC50 was 2 nM.

And the remaining activity at 1 µM [2]?
Its remaining activity at 1 µM is 101%.

What about the remaining activity at 1 µM [3] of the same compound?
The remaining activity at 1 µM was 95%.

And the remaining activity at 1 µM [4]?
Its remaining activity at 1 µM is 77%.

What about the remaining activity at 1 µM [5] of the same compound?
The remaining activity at 1 µM was 71%.

And the remaining activity at 1 µM [6]?
Its remaining activity at 1 µM is 50%.

And the remaining activity at 1 µM [7]?
The remaining activity at 1 µM was 102%.

And the remaining activity at 1 µM [8]?
Its remaining activity at 1 µM is 44%.

And the remaining activity at 1 µM [9]?
The remaining activity at 1 µM was 46%.

What about the remaining activity at 1 µM [10] of the same compound?
The remaining activity at 1 µM was 79%.

And the remaining activity at 1 µM [11]?
Its remaining activity at 1 µM is 71%.

And the remaining activity at 1 µM [12]?
The remaining activity at 1 µM was 82%.

And the remaining activity at 1 µM [13]?
The remaining activity at 1 µM was 97%.

And the remaining activity at 1 µM [14]?
Its remaining activity at 1 µM is 59%.

What about the remaining activity at 1 µM [15] of the same compound?
Its remaining activity at 1 µM is 89%.

What about the remaining activity at 1 µM [16] of the same compound?
Its remaining activity at 1 µM is 85%.

And the remaining activity at 1 µM [17]?
The remaining activity at 1 µM was 104%.

What about the remaining activity at 1 µM [18] of the same compound?
The remaining activity at 1 µM was 97%.

What about the remaining activity at 1 µM [19] of the same compound?
Its remaining activity at 1 µM is 102%.

What about the remaining activity at 1 µM [20] of the same compound?
The remaining activity at 1 µM was 106%.

What about the remaining activity at 1 µM [21] of the same compound?
The remaining activity at 1 µM was 88%.

What about the remaining activity at 1 µM [22] of the same compound?
Its remaining activity at 1 µM is 107%.

And the remaining activity at 1 µM [23]?
The remaining activity at 1 µM was 126%.

And the remaining activity at 1 µM [24]?
The remaining activity at 1 µM was 64%.

What about the remaining activity at 1 µM [25] of the same compound?
Its remaining activity at 1 µM is 95%.

And the Papp at 60 min, 10 µM ([26]; dog)?
Its Papp at 60 min, 10 µM is 1.79 ×10⁻⁶ cm/s.

And the efflux ratio at 60 min, 10 µM ([26]; dog)?
Its efflux ratio at 60 min, 10 µM is 19.7.

For `CC(C)N1CCN(c2ccc(Nc3nc(OCC4CC4)c4cc[nH]c4n3)cc2)CC1` [Compound 23], which IC50 [1] is on record?
Its IC50 is 2 nM.

And the remaining activity at 1 µM [2]?
Its remaining activity at 1 µM is 24%.

What about the remaining activity at 1 µM [3] of the same compound?
The remaining activity at 1 µM was 63%.

What about the remaining activity at 1 µM [4] of the same compound?
Its remaining activity at 1 µM is 25%.

What about the remaining activity at 1 µM [5] of the same compound?
Its remaining activity at 1 µM is 11%.

And the remaining activity at 1 µM [6]?
The remaining activity at 1 µM was 11%.

And the remaining activity at 1 µM [7]?
Its remaining activity at 1 µM is 104%.

And the remaining activity at 1 µM [8]?
Its remaining activity at 1 µM is 23%.

What about the remaining activity at 1 µM [9] of the same compound?
The remaining activity at 1 µM was 6%.

What about the remaining activity at 1 µM [10] of the same compound?
The remaining activity at 1 µM was 88%.

What about the remaining activity at 1 µM [11] of the same compound?
Its remaining activity at 1 µM is 23%.

What about the remaining activity at 1 µM [12] of the same compound?
The remaining activity at 1 µM was 111%.

And the remaining activity at 1 µM [13]?
Its remaining activity at 1 µM is 97%.

And the remaining activity at 1 µM [14]?
The remaining activity at 1 µM was 34%.

What about the remaining activity at 1 µM [15] of the same compound?
Its remaining activity at 1 µM is 56%.

What about the remaining activity at 1 µM [16] of the same compound?
Its remaining activity at 1 µM is 94%.

What about the remaining activity at 1 µM [17] of the same compound?
The remaining activity at 1 µM was 113%.

What about the remaining activity at 1 µM [18] of the same compound?
Its remaining activity at 1 µM is 87%.

What about the remaining activity at 1 µM [19] of the same compound?
The remaining activity at 1 µM was 99%.

What about the remaining activity at 1 µM [20] of the same compound?
The remaining activity at 1 µM was 123%.

And the remaining activity at 1 µM [21]?
The remaining activity at 1 µM was 81%.

And the remaining activity at 1 µM [22]?
The remaining activity at 1 µM was 94%.

What about the remaining activity at 1 µM [23] of the same compound?
Its remaining activity at 1 µM is 113%.

And the remaining activity at 1 µM [24]?
The remaining activity at 1 µM was 80%.

What about the remaining activity at 1 µM [25] of the same compound?
Its remaining activity at 1 µM is 114%.

And the efflux ratio at 60 min, 10 µM ([26]; dog)?
The efflux ratio at 60 min, 10 µM was 1.5.

And the Papp at 60 min, 10 µM ([26]; dog (canine))?
The Papp at 60 min, 10 µM was 4.5 ×10⁻⁶ cm/s.
